Test results from article PMC7822874, “Chemoprotective antimalarials identified through quantitative high-throughput screening of Plasmodium blood and liver stage parasites” (Scientific Reports, 2021).

Test system: Plasmodium falciparum Dd2 asexual blood stage parasites
Assay: microbe, parasite or virus in culture
Design: species or system Plasmodium falciparum Dd2 in human erythrocytes; single determination (one 11-point concentration-response curve)
Conditions: Plasmodium falciparum, DD2, Erythrocyte, 72 h; read-out: AC50

SMILES	AC50 [µM]
CCN1CCN(Cc2ccc(NC(=O)c3cc(NC(=O)c4cncc(-c5ccc(C#N)cc5)c4)cc(OC)c3)cc2C(F)(F)F)CC1 [MLS000911575-01]	0.596
CC1CCc2cc(F)ccc2N1C(=O)CSc1nnc2c(n1)[nH]c1ccc(F)cc12 (centres unmarked) [MLS000556689-01]	8.41
CC(Oc1ccc(F)cc1)C(=O)Nc1cc(C(F)(F)F)ccc1-n1cncn1 (centres unmarked) [MLS001160637-01]	1.68
NC(=O)C1CCN(CC(=O)Nc2cccc(C(=O)Nc3cccc(C(F)(F)F)c3)c2)CC1 [MLS000334956-01]	6.68
CCc1ccc(NC(=O)CSc2nc3[nH]nc(C)c3c(=N)n2-c2ccc(C)cc2)cc1 [NCGC00140694-01]	6.68
CC(C(=O)N1CCCC1)N1CCN(S(=O)(=O)c2ccc(C(C)(C)C)cc2)CC1 (centres unmarked) [MLS002156464-01]	3.35
Cn1cccc1CN1CCC(N2CC(OCC3CC3)C23CCCCC3)CC1 (centres unmarked) [NCGC00463411-01]	7.5
O=C(NCCc1cccnc1)c1ccc(-c2nnc3ccc(NC(=O)C4CCC4)cn23)cc1 [NCGC00429899-01]	6.68
O=C(CN1CCC(n2nnc3cc(F)ccc32)CC1)Nc1ccccc1N1CCOCC1 [MLS000030185-01]	5.31
Cc1ccc(-c2cc(C(F)F)n3ncc(C(=O)N4CCCCC4c4cccnc4)c3n2)cc1 (centres unmarked) [MLS000665275-01]	2.37
CCOc1ccc(CN2C(=O)c3ccccc3Sc3ccc(C(=O)N4CCC5(CC4)OCCO5)cc32)cc1 [NCGC00108218-01]	4.22
CC1=C[C@@H](CN2CCN(c3ncccn3)CC2)[C@H](C(C)C)C[C@H]1Cc1nnc(COc2ccc(F)cc2)o1 [NCGC00395820-01]	0.75
Cc1ccc(-n2cc(CNCCc3nc(C)c[nH]3)c(-c3ccc(F)cc3)n2)cc1 [MLS000735387-01]	15
CCOC(=O)c1c(N)sc2c1CCN(Cc1ccccc1)C2 [NCGC00159451-02]	5.31
Clc1ccc(C(Cn2ccnc2)OCc2csc3c(Cl)cccc23)c(Cl)c1 (centres unmarked) [MLS002154122-01]	2.37
Fc1cccc(CC2CCOC3(CCNCC3)C2)c1 (centres unmarked) [NCGC00470522-01]	13.3
NC1=NC(c2ccccc2C(F)(F)F)N(c2ccc(F)c(Cl)c2)C(N)=N1 (centres unmarked) [MLS001199775-01]	11.9
CCc1nn2cc(C(=O)c3cc(C)ccc3O)cnc2c1-c1ccc(F)cc1 [MLS000548735-01]	9.44
COc1cc(OC)cc(-c2cc3nc4c(c(N5CCN(c6ncccn6)CC5)n3n2)CCCC4)c1 [MLS000035210-01]	4.22
Cc1cc(Nc2cccc(C(F)(F)F)c2)nc2ccc(NC(=O)c3cncc(Br)c3)cc12 [NCGC00124348-01]	2.37
O=C(Cc1ccc(Cl)cc1)NCc1nnc2cc(-c3nc(C4CC4)no3)ccn12 [NCGC00457746-01]	7.5
Cc1ccc(NC(=O)c2cnc(-c3ccccc3)nc2-c2ccncc2)c(Br)c1 [NCGC00426434-01]	9.44
COc1cc2c(cc1OCC1CC1)NC(=O)C21CCN(c2nccs2)CC1 [NCGC00416908-01]	21.7
COc1ccc(-c2cc3ccc(O)c(CN4CCCC(C)C4)c3oc2=O)cc1 (centres unmarked) [NCGC00134281-01]	2.37
C#CCN(C)C(=O)C[C@@H]1c2nc(NC(=O)c3ccc(OC)cc3)sc2C[C@@H]2[C@](C)(CO)[C@H](O)CC[C@]21C [NCGC00394313-01]	2.66
CCc1cccc(-n2c(=O)c3cccnc3n2CC(=O)Nc2ccc(F)c(C)c2)c1 [NCGC00128424-01]	2.66

SMILES	AC50 [µM]
CCC(=O)O[C@]1(C(=O)CCl)[C@@H](C)C[C@H]2[C@@H]3C[C@H](F)C4=CC(=O)C=C[C@]4(C)[C@@]3(F)[C@@H](O)C[C@@]21C [NCGC00167451-01]	10.6
Cc1nc2sc(C(=O)Nc3ccc(F)cc3)c(N)c2c(-c2ccc(Br)cc2)c1C(=O)Nc1ccc(Cl)cc1 [NCGC00105115-01]	8.41
COc1cncc(Nc2cnc3ccc(-c4ccc(F)cc4)nn23)c1 [NCGC00412595-01]	3.06
Cn1nc(C2CCCCC2)cc1[C@H]1CN2CC[C@H]1C[C@@H]2CNC(=O)c1cccs1 [NCGC00399662-01]	13.7
COC(=O)c1cnn(-c2ccc(C(=O)Nc3ccc(OC(F)(F)F)cc3)cc2)c1N [NCGC00137710-01]	4.73
O=C(Nc1ccc(Cl)cc1)c1cc2c(-c3ccccc3)nn(-c3ccccc3)c2s1 [NCGC00102088-01]	2.37
COc1ccccc1CN1CCOCC2(C1)CN([S+](=O)([O-])c1ccccc1)C2 [NCGC00419002-01]	12.2
Cc1ccc(C(=O)c2cc(C)sc2NC(=O)CN2CCN(C(=O)c3ccco3)CC2)cc1 [MLS000073677-01]	7.5
COc1cccc(CN2CCCN(Cc3ccncc3)C(c3ccccc3)CC(=O)NCC2)c1 (centres unmarked) [NCGC00467185-01]	7.5
NC(Cc1ccccc1)C(=O)N1CCC2(CC1)CN(C(=O)c1ccc(Cl)cc1)CCO2 (centres unmarked) [NCGC00378158-01]	0.841
CCC[S+](=O)([O-])c1nc([S+](=O)([O-])c2ccc(C)cc2)c(NCCCOC(C)C)s1 [NCGC00113582-01]	2.11
c1cc(-c2noc([C@@H]3Cc4[nH]cnc4CN3CC3CCCCC3)n2)ccn1 [NCGC00394653-01]	21.7
CC(C)CCN1CCC(N2CCN([S+](=O)([O-])c3ccc4c(c3)CCCC4)CC2)C1=O (centres unmarked) [NCGC00472995-01]	9.44
O=C(Nc1sc2c(c1C(=O)NCc1ccco1)CCCC2)c1cc(=O)c2ccccc2o1 [NCGC00115806-01]	10.6
CC(O)CNCCNCc1c(OCc2ccccc2)ccc2ccccc12 (centres unmarked) [MLS000324858-01]	8.41
C#CCNC(=O)C[C@@H]1c2nc(NC(=O)OCC=C)sc2C[C@@H]2[C@](C)(CO)[C@H](O)CC[C@]21C [NCGC00391491-01]	15
CC1CCN(C(=O)C[C@@H]2c3nc(NC(=O)c4cccc(F)c4)sc3C[C@@H]3[C@](C)(CO)[C@H](O)CC[C@]32C)CC1 [NCGC00394310-01]	10.6
O=C(Nc1cc(Cl)ccc1O)c1cc2nc(-c3ccc4c(c3)OCO4)cc(C(F)(F)F)n2n1 [NCGC00164969-01]	2.66
Oc1cc(Nc2ccccc2)cc2cccnc12 [NCGC00183789-01]	6.68
CCOC(=O)c1cccc(NC(=O)CCn2c(-c3ccc(F)cc3)cc(C(=O)OCC)c2C)c1 [NCGC00140860-01]	0.075
COc1ccc(-c2cc(N3CCN(C(=O)c4c[nH]c5ccccc45)CC3)[nH]n2)cc1 [NCGC00436860-01]	15
O=C1CC2(CCN(Cc3ccccc3)CC2)Oc2ccccc21 [NCGC00476829-01]	13.7
COc1cc(C)ccc1OCCSc1nc2ccc(NC(=O)c3cccs3)cc2s1 [NCGC00118564-01]	13.3
COc1ccc(C(=O)N2CCC3(CC2)COc2ccccc2CN3)cc1 [NCGC00477552-01]	10.6
COc1ccc(-c2cc([C@H]3CN4CC[C@H]3C[C@@H]4CNC(=O)NC3CCCCC3)n(C)n2)cc1 [NCGC00399776-01]	1.88
COc1ccc(CCNc2nc3cc(OC)c(OC)cc3c3nc(-c4ccccc4)nn23)cc1OC [NCGC00112847-01]	2.37

SMILES	AC50 [µM]
CC(C)(C)n1nnnc1C(c1cccnc1)N(Cc1ccccc1)Cc1ccco1 (centres unmarked) [MLS000528003-01]	5.31
CC(C)CN1C(=O)c2ccccc2C(C(=O)Nc2nccs2)C12CCCC2 (centres unmarked) [NCGC00423343-01]	8.41
CCCCCCCNC(=O)C1(CC2CC(c3cccc(Br)c3)=NO2)CCN(C(=O)c2cc(OCC)c(OCC)c(OCC)c2)CC1 (centres unmarked) [MLS001144006-01]	10.6
CCc1cc(=O)oc2cc(C)cc(OCC(=O)C(C)(C)C)c12 [MLS000666007-01]	11.9
CCOc1ccc(NC(=O)c2nnn3cc(C)[nH]c(=O)c23)cc1 [NCGC00454245-01]	10.6
C[C@]1(CO)[C@H]2Cc3sc(NC(=O)c4cccc(F)c4)nc3[C@@H](CC(=O)N3CCOCC3)[C@]2(C)CC[C@H]1O [NCGC00395198-01]	8.41
O=C(Nc1cccnc1)c1cn(-c2ccccc2)nc1-c1cccs1 [MLS000081870-01]	2.37
CC(=O)N1CCc2cc(Br)cc(S(=O)(=O)N3CCCCCC3)c21 [MLS000086258-01]	5.31
CN(Cc1ccccc1)Cc1ccccc1OCC(O)CN1CCCCC1 (centres unmarked) [NCGC00426411-01]	1.5
O=C(NC1CCCCC1)C(c1cccs1)N(CCCN1CCOCC1)C(=O)c1ccc(-c2ccccc2)[nH]1 (centres unmarked) [MLS000711767-01]	4.73
Cc1nn2c3c(cnc2c1-c1ccccc1)C(=O)CC(c1ccco1)C3 (centres unmarked) [MLS000080714-01]	9.44
COc1ccc(-c2n[nH]c3ncc(-c4cccnc4)nc23)cc1F [NCGC00419143-01]	3.85
O=C(NCCc1c[nH]c2ccccc12)[C@@H]1C[C@H]2C(=O)NCCCCCCN(C(=O)c3ccco3)[C@H]2C1 [NCGC00465014-01]	10.6
CC1=C[C@@H](CN2CCOCC2)[C@H](C(C)C)C[C@H]1Cc1nnc(-c2ccc([N+](=O)[O-])cc2)o1 [NCGC00394583-01]	9.44
Cn1c(SCC(=O)N2c3ccccc3CCc3ccccc32)nnc1-c1cc2ccccc2cc1O [MLS000553503-01]	8.41
COc1cc(NC(=O)Cn2ncc3c(=O)oc4ccccc4c32)cc(OC)c1OC [NCGC00108571-01]	2.66
CC(=O)Nc1cccc(C(=O)N2CCC3(CC2)NC(c2ccc(C)cc2)=NO3)c1 [NCGC00446797-01]	0.841
Cc1cc(C)c(S(=O)(=O)n2ccc(-c3ccc(OCCN(C)c4ccccn4)cc3)n2)c(C)c1 [MLS000331310-01]	7.5
CC(C)c1ccccc1NC(=O)Cn1cccc1-c1nc(-c2ccc(F)cc2)no1 [NCGC00445438-01]	2.99
COCC1CN(Cc2cc(F)cc(Br)c2)CC12CCNCC2 (centres unmarked) [NCGC00461842-01]	9.44
CC1(c2ccccc2)N(Cc2ccccc2)C(=O)OC12CCN(Cc1cccnc1)CC2 (centres unmarked) [NCGC00415410-01]	15.3
COc1cc(NC(=O)CSc2nc(-c3ccc(C(C)C)cc3)no2)cc(OC)c1 [NCGC00127914-01]	0.841
COc1ncc(-c2cc(C(=O)NCc3c(C)cc(C)[nH]c3=O)c3c(c2)N(C(C)C)CCO3)cn1 [NCGC00416983-01]	9.44
COc1cccc(CN2CCCC(N3CCN(c4cccc(C(F)(F)F)c4)CC3)C2)c1O (centres unmarked) [NCGC00428830-01]	0.841
Cc1ccc(CN2CCCN(Cc3ccncc3)C(c3ccccc3)CC(=O)NCC2)o1 (centres unmarked) [NCGC00467180-01]	7.5
